What was measured:
Conditions in all cases: 72 h
Caco-2 [1] = test: drug sensitivity score (DSS) for viability; higher = more toxic; extreme values may be limits of the assay
Calu-3 [2] = test: as above
Vero E6 [3] = test: as above
HepG2 [4] = test: as above
U2OS [5] = test: as above
Caco-2 [6] = test: cell viability relative to DMSO; higher = less toxic
Calu-3 [7] = test: as above
Vero E6 [8] = test: as above
HepG2 [9] = test: as above
U2OS [10] = test: as above
Caco-2 [11] = test: relative viability EC50 (midpoint between 100% and the lowest measured viability); higher = less toxic
Calu-3 [12] = test: as above
Vero E6 [13] = test: as above
HepG2 [14] = test: as above
U2OS [15] = test: as above

Structure (SMILES)	drug sensitivity score (Caco-2 [1])	drug sensitivity score (Calu-3 [2])	drug sensitivity score (Vero E6 [3])	drug sensitivity score (HepG2 [4])	drug sensitivity score (U2OS [5])	cell viability (Caco-2 [6]; 1 nM) [%]	cell viability (Caco-2 [6]; 10 nM) [%]	cell viability (Caco-2 [6]; 100 nM) [%]	cell viability (Caco-2 [6]; 1000 nM) [%]	cell viability (Caco-2 [6]; 10000 nM) [%]	cell viability (Calu-3 [7]; 1 nM) [%]	cell viability (Calu-3 [7]; 10 nM) [%]	cell viability (Calu-3 [7]; 100 nM) [%]	cell viability (Calu-3 [7]; 1000 nM) [%]	cell viability (Calu-3 [7]; 10000 nM) [%]	cell viability (Vero E6 [8]; 1 nM) [%]	cell viability (Vero E6 [8]; 10 nM) [%]	cell viability (Vero E6 [8]; 100 nM) [%]	cell viability (Vero E6 [8]; 1000 nM) [%]	cell viability (Vero E6 [8]; 10000 nM) [%]	cell viability (HepG2 [9]; 1 nM) [%]	cell viability (HepG2 [9]; 10 nM) [%]	cell viability (HepG2 [9]; 100 nM) [%]	cell viability (HepG2 [9]; 1000 nM) [%]	cell viability (HepG2 [9]; 10000 nM) [%]	cell viability (U2OS [10]; 1 nM) [%]	cell viability (U2OS [10]; 10 nM) [%]	cell viability (U2OS [10]; 100 nM) [%]	cell viability (U2OS [10]; 1000 nM) [%]	cell viability (U2OS [10]; 10000 nM) [%]	relative viability EC50 (Caco-2 [11]) [µM]	relative viability EC50 (Calu-3 [12]) [µM]	relative viability EC50 (Vero E6 [13]) [µM]	relative viability EC50 (HepG2 [14]) [µM]	relative viability EC50 (U2OS [15]) [µM]
CCc1nn(CCO)c(CC)c1Oc1cc(C#N)cc(C#N)c1 [lersivirine]	0	0	0	0	0	109	95.8	97.9	98.8	105	102	99.4	107	114	104	96.8	95.6	97.5	90.8	100	92.1	110	94.7	95.9	105	100	97.6	95.7	102	102	> 10	> 10	> 10	> 10	> 10
COc1cc(CN(CCN)C(=O)c2cccs2)ccc1OCc1ccccc1 [M8-B]	0.1	0	0	0	0	89.5	98.4	101	95.6	89.1	103	89.1	108	99.7	98.5	94.8	94.1	97.2	98	102	99.8	96.5	91.1	110	96.2	95.1	97.6	102	95.7	95.4	> 10	> 10	> 10	> 10	> 10
CC(C)NC(=O)c1ccc(C#Cc2ccncc2)cn1	0	0	0	0	0	101	90.3	99.1	92.4	95.4	90.1	95.8	99.9	99	114	100	96.1	92.2	94.5	101	104	102	98.1	96.7	98.1	95.1	98.3	97.1	104	102	> 10	> 10	> 10	> 10	> 10

Reference: the supplement of paper PMC13380429
